From paper PMC7080406 (eLife, 2020)
“And” between values parts separate entries of the source, which are not always exact repeats. Equal entries are not always repeated. “Also recorded” adds a separate entry of the source. Where two headings read alike, the source gives them in different places.

Experiments:
MT1 [1] = target: T1, MT1 (Homo sapiens, UniProt P48039); experiment: [3H]melatonin competition radioligand binding, MT1 membranes; settings: read-out: MT1 pKi ± SEM (converted)
T1 construct: expressed in transfected cells; host or cells: HEK293T (ATCC CRL-11268), transient transfection
T1 sequence (P48039 whole entry): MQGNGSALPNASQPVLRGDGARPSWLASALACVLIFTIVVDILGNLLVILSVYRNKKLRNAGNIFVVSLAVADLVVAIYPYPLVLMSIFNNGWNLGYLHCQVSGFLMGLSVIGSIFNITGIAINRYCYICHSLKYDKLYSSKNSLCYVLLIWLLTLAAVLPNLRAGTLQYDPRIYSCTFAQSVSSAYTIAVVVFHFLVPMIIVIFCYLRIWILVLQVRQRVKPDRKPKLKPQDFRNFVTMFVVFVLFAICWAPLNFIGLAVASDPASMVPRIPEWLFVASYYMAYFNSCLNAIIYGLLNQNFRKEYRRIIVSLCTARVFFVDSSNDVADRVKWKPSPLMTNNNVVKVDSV
Experimental: (§1) The Radioligand binding assays were conducted by the NIMH Psychoactive Drug Screening Program (PDSP). The NIMH PDSP is directed by Bryan L. Roth, MD, PhD, at the University of North Carolina at Chapel Hill, North Carolina, and Program Officer Jamie Driscoll at NIMH, Bethesda, MD. Binding assay procedures and protocols are also available online at http://pdspdb.unc.edu/pdspWeb/?site=assays. […] Assay plates were sealed and incubated for 4 hr at 37°C in a humidified incubator until harvesting. Plates were harvested using vacuum filtration onto 0.3% polyethyleneimine pre-soaked 96-well Filtermat A (PerkinElmer) and washed three times with cold wash buffer (50 mM Tris, pH 7.4). Filters were dried and melted with a scintillation cocktail (Meltilex, PerkinElmer). Radioactivity was counted using a Wallac TriLux Microbeta counter (PerkinElmer). Results were analyzed using GraphPad Prism 7.0.

MT1 [2] = target: T1, MT1; experiment: GloSensor Gi/o-mediated cAMP production inhibition assay, MT1; format: cell-based; settings: for EC50: Gi/o mediated; for MT1 LE: ligand efficiency (based on EC50); for Emax: read-out: MT1 Emax ± SEM
Experimental: (§2) Briefly, HEK293 T cells (as above) were transiently co-transfected with receptor (MT1 or MT2) and GloSensor cAMP (Promega) plasmids overnight, plated in Poly-L-Lysine coated 384-well white clear bottom plates in DMEM + 1% dialyzed FBS. Cells were used for assays at a minimum of 6 hr after plating. Culture medium was first removed and cells were stimulated with drugs in assay buffer (1x HBSS, 20 mM HEPES, 1 mg/ml BSA, 0.1 mg/ml ascorbic acid, pH 7.4) for 15 min at room temperature (this and all the following steps), followed by addition of a mixture of isoproterenol (final of 100 nM) and luciferin (final of 1 mM) for Gi/o-cAMP production inhibition assays and luciferin (final of 1 mM) for Gs-cAMP production assays. The plates were counted for luminescence after 25 min in a luminescence plate reader. Results were analyzed using GraphPad Prism 7.0.

MT2 [3] = target: T2, MT2 (Homo sapiens, UniProt P49286); experiment: [3H]melatonin competition radioligand binding, MT2 membranes; design: expressed in transfected cells; host or cells: HEK293T (ATCC CRL-11268), transient transfection; settings: read-out: MT2 pKi ± SEM (converted)
T2 sequence (P49286 1-362): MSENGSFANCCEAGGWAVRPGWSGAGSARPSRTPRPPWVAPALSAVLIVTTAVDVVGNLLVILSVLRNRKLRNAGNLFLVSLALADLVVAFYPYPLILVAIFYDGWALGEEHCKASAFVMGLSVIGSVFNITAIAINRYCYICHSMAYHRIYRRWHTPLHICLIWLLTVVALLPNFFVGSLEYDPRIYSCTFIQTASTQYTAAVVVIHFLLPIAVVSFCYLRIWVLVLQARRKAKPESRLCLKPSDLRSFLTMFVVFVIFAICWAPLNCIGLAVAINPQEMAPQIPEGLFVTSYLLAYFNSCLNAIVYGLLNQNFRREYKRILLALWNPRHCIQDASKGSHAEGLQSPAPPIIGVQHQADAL
Experimental: as §1

MT2 [4] = target: T2, MT2; experiment: GloSensor Gi/o-mediated cAMP production inhibition assay, MT2; format: cell-based; design: expressed in transfected cells; host or cells: HEK293T (ATCC CRL-11268), transient transfection; settings: for MT2/MT1 Selectivity: Antilog (log(Emax/EC50) MT2 - log (Emax/EC50) MT1), values below 1 = MT1 selectivity; for EC50: Gi/o mediated, read-out: MT2 EC50; for Emax: MT2, activation compared to melatonin, read-out: MT2 Emax ± SEM; for MT2 LE: ligand efficiency (based on EC50)
Experimental: as §2

MT1 wildtype (WT) = target: T3, MT1 wildtype (WT) (Homo sapiens, UniProt P48039); experiment: Tango β-arrestin recruitment assay, MT1 wildtype; format: cell-based
T3 construct: host or cells: HTLA cells (HEKT based)
T3 sequence (P48039 whole entry): as the sequence (P48039 whole entry) above
Experimental: (§3) In brief, HTLA cells were transiently transfected with receptor TANGO DNA constructs overnight in DMEM with 10% FBS. Transfected cells were then plated into poly-L-Lys coated 384-well plates using DMEM supplemented with 1% dialyzed FBS. After 6 hr incubation, drug dilutions, prepared in DMEM with 1% dFBS, were added for incubation overnight (16–20 hr). Medium and drug solutions were removed, Bright-Glo reagent (20 uL/well) was added for luminescence counting 20 min later. Results were analyzed in GraphPad Prism 7.0.

[5] = target: T4, MT1 N162Q mutant receptor (Homo sapiens, UniProt P48039, N162Q); experiment: Tango β-arrestin recruitment assay, MT1 N162Q mutant; format: cell-based
T4 construct: expressed in transfected cells; host or cells: HTLA cells (HEKT based)
T4 sequence (P48039 whole entry N162Q): as the sequence (P48039 whole entry) above, with N162Q counted along it
Experimental: as §3

[6] = target: T5, MT1 Y281F mutant receptor (Homo sapiens, UniProt P48039, Y281F); experiment: Tango β-arrestin recruitment assay, MT1 Y281F mutant; format: cell-based; settings: normalized individually (basal 0%, maximum 100%); mean ± SEM, minimum of 3 assays; read-out: pEC50, Tango, MT1 Y281F (converted)
T5 construct: expressed in transfected cells; host or cells: HTLA cells (HEKT based)
T5 sequence (P48039 whole entry Y281F): as the sequence (P48039 whole entry) above, with Y281F counted along it
Experimental: as §3

[7] = tested on: panel of 47 common drug targets (GPCRs, ion-channels and transporters); experiment: Binding profiling at a panel of 47 common drug targets; settings: final concentration of 10 μM
Experimental: as §1, with “http://pdspdb.unc.edu/pdspWeb/?site=assays. All the radioligand binding assays were performed using membranes prepared from transiently transfected HEK293T cells (purchased from ATCC, CRL-11268, authenticated by the supplier using morphology, growth characteristics, and STR profiling and certified mycoplasma-free) and in standard binding buffer (50 mM Tris, 10 mM MgCl2, 0.1 mM EDTA, 0.1% BSA, 0.01% ascorbic acid, pH 7.4) as recently reported ([Stauch et al., 2019]).” for “http://pdspdb.unc.edu/pdspWeb/?site=assays.”

[8] = SEM, N = 3, read-out: MT1 pEC50 ± SEM (converted)

Structure (SMILES)	Ki (MT1 [1]) [nM]	EC50 (MT1 [2]; [8]) [nM]	EC50 (MT1 [2]; read-out: MT1 EC50) [nM]	MT1 LE (MT1 [2])	Emax (MT1 [2]) [%]	Ki (MT2 [3]) [nM]	MT2/MT1 Selectivity (MT2 [4])	EC50 (MT2 [4])	Emax (MT2 [4]) [%]	MT2 LE (MT2 [4])	G-protein (Gi) signaling at MT1 (MT1 [2]; result in words)	EC50 (MT1 wildtype (WT); normalized individually (basal 0%, maximum 100%), mean ± SEM, minimum of 3 assays, read-out: pEC50, Tango, MT1 WT (converted)) [nM]	β-arrestin activity at MT1 (MT1 wildtype (WT); result in words)	increase of potency, MT1 N162Q versus WT ([5]; Tango) [fold]	EC50 ([5]; normalized individually (basal 0%, maximum 100%), mean ± SEM, minimum of 3 assays, read-out: pEC50, Tango, MT1 N162Q (converted)) [nM]	EC50 [6] [nM]	binding at panel of 47 common drug targets [7]	EC50 (MT1 [2]; text value, read-out: MT1 EC50) [nM]
COc1cccc([C@@H]2C[C@H]2CNC(=O)C(N)=O)c1 (racemic) [Compound 23, rac-N'-{[(1R,2R)-2-(3-methoxyphenyl)cyclopropyl]methyl}ethanediamide]	3800	69.2	57.5	0.56 kcal/mol per non-hydrogen atom	96.9 ± 5.3	2750	2.7 fold	20.4 nM	91.7 ± 3	0.60 kcal/mol per non-hydrogen atom								
CC(=O)NCC1CCCCN1c1ccnc(C)n1 (stereo not drawn) [Compound 29, N-{[1-(2-methylpyrimidin-4-yl)piperidin-2-yl]methyl}acetamide]	6030	148	144	0.53 kcal/mol per non-hydrogen atom	87.5 ± 4.5	2450	3.3 fold	34.7 nM	< 70	0.58 kcal/mol per non-hydrogen atom								
COc1cccc(CNc2nc(C3CC3)no2)c1 [Compound 37, 3-cyclopropyl-N-[(3-methoxyphenyl)methyl]-1,2,4-oxadiazol-5-amine]	8510		> 30000			3550	>1000.0 fold	141 nM	61.1 ± 9.1	0.53 kcal/mol per non-hydrogen atom	devoid of Gi signaling; also recorded: completely lacks G-protein signaling	4170	substantial β-arrestin activity	2	2240	11700	did not show any substantial binding	
COc1cccc(Cn2c(N)cc(=O)[nH]c2=O)c1 [Compound 44, 6-amino-1-[(3-methoxyphenyl)methyl]-1,2,3,4-tetrahydropyrimidine-2,4-dione]	64600		57500	0.33 kcal/mol per non-hydrogen atom	72.8 ± 4.7	11200	267 fold and 267.2 fold	263 nM	88.9 ± 6.3	0.51 kcal/mol per non-hydrogen atom								
CC(=O)c1sc2nc3c(cc2c1N)CCC3 [Compound 45]	28800		8710	0.44 kcal/mol per non-hydrogen atom	90.6 ± 14.3	5500	17 fold and 16.9 fold	427 nM	75 ± 7.4	0.56 kcal/mol per non-hydrogen atom								
NC(=O)c1cc(C(=O)c2ccccc2Cl)c[nH]1 [Compound 47]	26300		2340	0.46 kcal/mol per non-hydrogen atom	112 ± 5.2	1230	187 fold and 186.9 fold	10 nM and 10.2 nM	91.7 ± 3	0.66 kcal/mol per non-hydrogen atom								2340
COC(=O)c1[nH]c2cc(OC)ccc2c1N [Compound 54]	9330	871	741	0.54 kcal/mol per non-hydrogen atom	82.8 ± 4.3	2750	36.9 fold	18.2 nM	75 ± 3.7	0.68 kcal/mol per non-hydrogen atom								
COc1cccc(CNC(=O)c2ccno2)c1 [Compound 57, N-[(3-methoxyphenyl)methyl]-1,2-oxazole-5-carboxamide]	14500	1910	1780	0.47 kcal/mol per non-hydrogen atom	87.5 ± 9.1	4270	10.3 fold	132 nM	< 70	0.57 kcal/mol per non-hydrogen atom								
Nc1cc(=O)[nH]c(=S)n1CCc1ccccc1 [Compound 62]	47900	40700	42700	0.36 kcal/mol per non-hydrogen atom	54.1 ± 10	3240	875.9 fold	52.5 nM	< 70	0.60 kcal/mol per non-hydrogen atom								
COc1ccc2[nH]cc(CCNC(C)=O)c2c1 [Melatonin, N-acetyl-5-methoxytryptamine, reference compound]					100 ± 5.6													
